{
  "source": "patent US12636260B2",
  "about": "“Application of α-asarone in preparation of medicine for preventing or treating hemorrhagic stroke” (CHENGDU XINRUI TAIKANG TECHNOLOGY CO., LTD., priority 2021, dated 2026)",
  "key": {"SAH rats [1]": {"test_system": "SAH rats", "test": "Short-term neurological function of SAH rats (Garcia score, beam balance test, bleeding score)", "assay_type": "in vivo, rat", "conditions": "SAH model; for Beam balance score / Garcia score: 24 hours after modeling", "method": "Experimental grouping: At 2 h after endovascular perforation or collagenase VII injection, Zea Longa score was used to evaluate the neurological function of rats. Successful model rats were randomly divided into groups for administration.\nAll groups were administrated through the tail vein injection except for group N administrated intraperitoneally.\nThe rats were fasted for 12 hours before operation, and were anesthetized with 4% isoflurane, and kept anesthetized with 2% isoflurane. The animals were fixed in the supine position with the body temperature maintained at about 37° C. A traditional skin incision of the neck was performed along the midline. The muscle and fascia were separated along the medial margin of the sternocleidomastoid muscle to expose the right side, then the common carotid artery (CCA), external carotid artery (ECA) and internal carotid artery (ICA) were bluntly separated with disposal lines placed at CCA proximal end, ICA and ECA for use. The CCA proximal end and the ECA were ligated, and the ICA was temporarily clamped with an arterial clip, and then a small hole was poked with a needle at about 4 mm from the bifurcation at the CCA. A nylon suture was introduced into the CCA from the hole and advanced through the ICA after releasing the arterial clip, and the suture was inserted intracranially. […] The suture moved forward for roughly 2 mm to perforate the artery followed by instant withdraw, and then the suture was completely removed and the ICA was ligated. Finally, the incision was cleaned with normal saline and sutured. The sham group conducted the same procedure as the model group except for the perforation. After awakening from anesthesia, the animals were raised normally.\nThe SAH severity was grading after rat's euthanasia, i.e., completing the evaluation of short-term neurological function. The score was determined by the amount of subarachnoid hemorrhage on the surface of basal cistern and brain tissue which was divided into six parts by the Willis ring composed of basilar artery, anterior cerebral artery, internal carotid artery, posterior cerebral artery and posterior communicating artery. Each part was graded from 0 to 3 points according to the amount of subarachnoid blood clots, i.e., 0 points: no subarachnoid blood; 1 point: a small amount of subarachnoid blood; 2 points: moderate amount of blood clots with recognizable arteries; 3 points: blood clots cover all arteries in the area. All 6 part scores were added up for a total of 18 points. According to the final score, SAH hemorrhage severity could be divided into mild subarachnoid hemorrhage (0 to 7 points), moderate subarachnoid hemorrhage (8 to 12 points), and severe subarachnoid hemorrhage (13 to 18 points). The moderate to severe SAH models were selected for statistical analysis (score≥8 points).\nAccording to Zea Longa's neurological function score, the rats were scored 2 hours after the operation when they were awake from anesthesia. Successful model rats with a score of 1 to 3 points were enrolled in the group: • 0 points: no neurological deficits with normal activity; • 1 point: inability to fully extend the contralateral forepaw; • 2 points: the animal appears to turn in circles when crawling; • 3 points: the animal tends to lean to the hemiplegic side; • 4 points: the animal cannot walk spontaneously or loses consciousness. 1.4 Assessment of Short-Term Neurological Function\nThe neurological function of rats was comprehensively evaluated with Garcia score and beam balance test 24 hours after modeling. The criteria of Garcia score are shown in Table 1, which evaluates the movement, sensation, climbing and limb symmetry of the rats with the score range of 3 to 18 points. The lower the score, the more severe the neurological injury. The criteria of the beam balance test are shown in Table 2, which evaluated the proprioception and body coordination of rats with the score range of 0 to 6 points. […]"}, "SAH rats [2]": {"test_system": "SAH rats", "test": "Brain water content and blood-brain barrier permeability (Evans blue), SAH rats", "assay_type": "in vivo, rat", "conditions": "24 hours after operation, group M, medium-dose intravenous, vs model group", "method": "After completing the evaluation of 24-hour short-term neurological function, 4% Evans blue solution (2.5 mL/kg) was injected into the right caudal vein of the rats. After circulated for 1 hour, the rats were deeply anesthetized and transcardinally perfused with 100 mL of normal saline to collect the rats' brain. The whole brain was divided into four groups: left hemisphere (LH), right hemisphere (RH), cerebellum (Cb) and brainstem (BS). The left and right hemispheres were coronally divided into two parts, one part was immediately weighed (wet weight) with a balance with an accuracy of 0.1 mg, dried in an oven at 105° C. for 24 hours and weighed again (dry weight). The brain water content was calculated as [(wet weight−dry weight)/wet weight]×100%. The other part of the brain tissue was weighed (wet weight) and emerged into 10 times the volume of pure formamide, incubated at 60° C. for 48 hours, centrifuged at 25° C. for 30 min (10,000 rpm/min). The Evans blue in the supernatant was measured at 622 nm by a UV spectrophotometry, and calculated with a standard curve for quantification. The amount of Evans blue was expressed as μg/g of brain tissue (wet weight)."}, "ICH rats [3]": {"test_system": "ICH rats", "test": "Glutamate and GABA content in brain tissue, ICH rats", "assay_type": "in vivo, rat", "conditions": "12 to 24 hours after operation, group M", "method": "The rats were deeply anesthetized, and decapitated to collect the brain at 12-24 hours after modeling. Then about 60 to 120 mg of brain cortex on the hemorrhagic side were weighed, homogenized with 10 times the volume of ice-cold centrifuge buffer for biochemical detection, homogenized for 10 min in an ice bath, and centrifuged at 4° C. for 30 minutes (14,000 rpm/min). The contents of glutamate and GABA in the supernatant were detected according to the instructions of glutamate content detection kit and rat GABA Elisa kit."}, "[4]": {"test": "Toxic and side effects observed during all the experiments", "assay_type": "in vivo", "conditions": "during all the experiments of the disclosure"}, "ICH rats [5]": {"test_system": "ICH rats", "test": "Short-term neurological function of ICH rats (Garcia score, beam balance test)", "assay_type": "in vivo, rat", "conditions": "ICH model, 24 hours after modeling; group O, α-asarone emulsion oral administration 40 mg/kg"}, "[6]": {"conditions": "group H, α-asarone emulsion injection 30 mg/kg tail vein"}, "[7]": {"conditions": "group L, α-asarone emulsion injection 7.5 mg/kg tail vein"}, "[8]": {"conditions": "group M, α-asarone emulsion injection 15 mg/kg tail vein"}},
  "data": [
    {"smiles": "C/C=C/c1cc(OC)c(OC)cc1OC", "note": "[α-asarone, trans-2,4,5-trimethoxy-1-propenylbenzene]", "values": [
      {"measurement": "Beam balance score", "setting": "SAH rats [1]; [6]", "result": 3.22},
      {"measurement": "Garcia score", "setting": "SAH rats [1]; [6]", "result": 11.79},
      {"measurement": "Beam balance score", "setting": "SAH rats [1]; [7]", "result": 3.30},
      {"measurement": "Garcia score", "setting": "SAH rats [1]; [7]", "result": 10.82},
      {"measurement": "Beam balance score", "setting": "SAH rats [1]; [8]", "result": 2.70},
      {"measurement": "Garcia score", "setting": "SAH rats [1]; [8]", "result": 12.29},
      {"measurement": "curative effect compared with nimodipine (group N) and vinpocetine (group V)", "setting": "SAH rats [1]; group M, 15 mg/kg", "result": "better"},
      {"measurement": "Evans blue content", "setting": "SAH rats [2]", "result": "significantly reduce"},
      {"measurement": "brain water content", "setting": "SAH rats [2]", "result": "significantly reduce"},
      {"measurement": "GABA content in the hemorrhagic brain tissue", "setting": "ICH rats [3]", "result": "significantly reduce"},
      {"measurement": "glutamate content in the hemorrhagic brain tissue", "setting": "ICH rats [3]", "result": "significantly reduce"},
      {"measurement": "toxic and side effects", "setting": "[4]", "result": "no obvious toxic and side effects"},
      {"measurement": "Beam balance score", "setting": "ICH rats [5]", "result": 3.41},
      {"measurement": "Garcia score", "setting": "ICH rats [5]", "result": 10.17}
    ]}
  ]
}
